{
  "source": "ChEMBL document CHEMBL1201862",
  "about": "“PubChem BioAssay data set” (2004)",
  "key": {"[1]": {"biological_target": "5-hydroxytryptamine receptor 1A (Homo sapiens, UniProt P08908)", "sequence (P08908 whole entry)": "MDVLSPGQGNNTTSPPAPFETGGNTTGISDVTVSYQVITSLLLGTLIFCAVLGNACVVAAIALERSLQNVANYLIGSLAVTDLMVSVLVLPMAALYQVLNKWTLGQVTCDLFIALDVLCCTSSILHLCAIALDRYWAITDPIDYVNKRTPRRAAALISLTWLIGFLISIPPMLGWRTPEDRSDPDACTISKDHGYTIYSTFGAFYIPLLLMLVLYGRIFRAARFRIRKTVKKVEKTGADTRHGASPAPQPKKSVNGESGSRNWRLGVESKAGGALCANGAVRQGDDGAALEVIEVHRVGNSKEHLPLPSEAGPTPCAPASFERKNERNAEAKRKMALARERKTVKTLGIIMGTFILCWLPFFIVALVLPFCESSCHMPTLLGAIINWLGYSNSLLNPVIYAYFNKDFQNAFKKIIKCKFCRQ", "assay_type": "functional"}, "[2]": {"biological_target": "T1, Carboxy-terminal domain RNA polymerase II polypeptide A small phosphatase 1 (Homo sapiens, UniProt Q9GZU7)", "T1 sequence (Q9GZU7 whole entry)": "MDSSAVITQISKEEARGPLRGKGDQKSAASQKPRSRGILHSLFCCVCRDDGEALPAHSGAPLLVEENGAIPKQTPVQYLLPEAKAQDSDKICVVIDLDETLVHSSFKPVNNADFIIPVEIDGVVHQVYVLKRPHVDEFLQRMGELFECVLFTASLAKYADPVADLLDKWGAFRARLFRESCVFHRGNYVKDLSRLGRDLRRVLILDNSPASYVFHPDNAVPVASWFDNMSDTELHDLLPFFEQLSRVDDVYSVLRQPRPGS", "assay": "inhibitors of CTDSP1, concentration-response testing, biochemical assay, absorbance-based, actives from ultra-high-throughput screening (AID 540297)", "assay_type": "functional"}, "[3]": {"biological_target": "Polyadenylate-binding protein 1 (Homo sapiens, UniProt P11940)", "sequence (P11940 whole entry)": "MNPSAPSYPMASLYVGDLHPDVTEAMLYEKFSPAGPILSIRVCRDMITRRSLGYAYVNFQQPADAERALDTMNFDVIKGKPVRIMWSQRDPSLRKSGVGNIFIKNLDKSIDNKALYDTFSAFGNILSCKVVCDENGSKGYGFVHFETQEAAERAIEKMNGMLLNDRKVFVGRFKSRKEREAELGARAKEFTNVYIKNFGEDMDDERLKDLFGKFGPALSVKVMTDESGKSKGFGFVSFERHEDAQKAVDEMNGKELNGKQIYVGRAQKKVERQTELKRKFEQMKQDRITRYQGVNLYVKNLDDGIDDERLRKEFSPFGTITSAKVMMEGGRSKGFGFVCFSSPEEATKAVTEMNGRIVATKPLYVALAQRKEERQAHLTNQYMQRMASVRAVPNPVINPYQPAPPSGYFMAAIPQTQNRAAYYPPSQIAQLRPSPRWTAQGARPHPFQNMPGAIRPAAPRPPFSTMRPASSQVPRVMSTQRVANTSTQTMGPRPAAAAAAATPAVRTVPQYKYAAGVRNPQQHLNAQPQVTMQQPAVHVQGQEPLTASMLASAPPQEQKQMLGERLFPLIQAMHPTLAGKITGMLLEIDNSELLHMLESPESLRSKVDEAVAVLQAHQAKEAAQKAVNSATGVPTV", "assay": "PABP poly(A) RNA binding inhibitors, primary screen, biochemical, fluorescence polarization, uHTS (AID 2014)"}, "[4]": {"biological_target": "Eukaryotic translation initiation factor 4H (Homo sapiens, UniProt Q15056)", "assay": "human eIF4H binding inhibitors, primary screen, translation initiation inhibitor project, biochemical, uHTS, fluorescence polarization (AID 2012)"}, "[5]": {"assay": "M. tuberculosis H37Rv growth inhibitors, H37Rv strain (AID 1626)", "assay_type": "functional"}, "[6]": {"assay": "cytotoxicity toward NIH3T3 fibroblasts, dose response, counter-screen, cell-based, ATP luminescence, mouse fibroblasts (AID 2010);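 further: cells exposed to compound for about 90 hours before reading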", "assay_type": "functional"}, "[7]": {"assay": "inhibitors of intracellular T. cruzi replication, confirmation, NIH3T3 host cells, beta-gal luminescence (AID 2044);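 further: luminescent beta-galactosidase reporter signal from transgenic T. cruzi replicating inside host cells; inhibitors lower the luminescence signal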", "assay_type": "functional, cell-based"}, "[8]": {"assay": "M. tuberculosis growth inhibition, HTS (AID 449762)", "assay_type": "functional"}, "Danio rerio": {"tested_on": "Danio rerio", "assay": "In Vivo Angiogenesis Dose-Response Confirmation. [Related pubchem assays: 732 (Assay preceding this confirmatory assay.)]", "assay_type": "functional, organism-based"}, "[9]": {"biological_target": "Photoreceptor-specific nuclear receptor (Homo sapiens, UniProt Q9Y5X4)", "sequence (Q9Y5X4 whole entry)": "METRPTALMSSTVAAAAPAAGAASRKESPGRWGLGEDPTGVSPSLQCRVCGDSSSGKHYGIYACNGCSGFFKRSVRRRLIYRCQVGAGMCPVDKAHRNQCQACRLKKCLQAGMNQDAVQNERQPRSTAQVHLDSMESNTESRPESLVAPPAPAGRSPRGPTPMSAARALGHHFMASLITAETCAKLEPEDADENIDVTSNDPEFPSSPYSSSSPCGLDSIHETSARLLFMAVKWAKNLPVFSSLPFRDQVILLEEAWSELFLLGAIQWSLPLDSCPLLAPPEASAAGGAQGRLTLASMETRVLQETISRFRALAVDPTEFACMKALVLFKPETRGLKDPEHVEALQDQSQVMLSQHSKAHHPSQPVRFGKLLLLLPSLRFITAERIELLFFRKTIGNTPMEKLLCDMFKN", "assay": "NR2E3 inverse agonists, dose response, biochemical, TR-FRET (AID 463256)", "assay_type": "functional"}, "[10]": {"biological_target": "Peroxisome proliferator-activated receptor gamma/Nuclear receptor corepressor 2 (Homo sapiens, UniProt P37231+Q9Y618)", "sequence (P37231 whole entry)": "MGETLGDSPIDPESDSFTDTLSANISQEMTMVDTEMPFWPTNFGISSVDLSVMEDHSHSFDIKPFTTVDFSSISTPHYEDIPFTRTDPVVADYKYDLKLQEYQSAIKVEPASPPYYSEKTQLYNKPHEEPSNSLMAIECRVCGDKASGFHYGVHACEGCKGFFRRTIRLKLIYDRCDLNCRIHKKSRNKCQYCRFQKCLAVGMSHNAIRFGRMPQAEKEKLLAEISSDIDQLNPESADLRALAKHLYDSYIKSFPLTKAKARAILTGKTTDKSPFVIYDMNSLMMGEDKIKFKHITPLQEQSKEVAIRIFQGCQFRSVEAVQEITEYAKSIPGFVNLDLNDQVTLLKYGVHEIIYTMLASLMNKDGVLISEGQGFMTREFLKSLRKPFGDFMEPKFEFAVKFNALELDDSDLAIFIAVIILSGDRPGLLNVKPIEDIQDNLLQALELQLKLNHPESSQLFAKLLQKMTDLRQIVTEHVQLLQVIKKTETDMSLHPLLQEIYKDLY", "sequence (Q9Y618 whole entry)": "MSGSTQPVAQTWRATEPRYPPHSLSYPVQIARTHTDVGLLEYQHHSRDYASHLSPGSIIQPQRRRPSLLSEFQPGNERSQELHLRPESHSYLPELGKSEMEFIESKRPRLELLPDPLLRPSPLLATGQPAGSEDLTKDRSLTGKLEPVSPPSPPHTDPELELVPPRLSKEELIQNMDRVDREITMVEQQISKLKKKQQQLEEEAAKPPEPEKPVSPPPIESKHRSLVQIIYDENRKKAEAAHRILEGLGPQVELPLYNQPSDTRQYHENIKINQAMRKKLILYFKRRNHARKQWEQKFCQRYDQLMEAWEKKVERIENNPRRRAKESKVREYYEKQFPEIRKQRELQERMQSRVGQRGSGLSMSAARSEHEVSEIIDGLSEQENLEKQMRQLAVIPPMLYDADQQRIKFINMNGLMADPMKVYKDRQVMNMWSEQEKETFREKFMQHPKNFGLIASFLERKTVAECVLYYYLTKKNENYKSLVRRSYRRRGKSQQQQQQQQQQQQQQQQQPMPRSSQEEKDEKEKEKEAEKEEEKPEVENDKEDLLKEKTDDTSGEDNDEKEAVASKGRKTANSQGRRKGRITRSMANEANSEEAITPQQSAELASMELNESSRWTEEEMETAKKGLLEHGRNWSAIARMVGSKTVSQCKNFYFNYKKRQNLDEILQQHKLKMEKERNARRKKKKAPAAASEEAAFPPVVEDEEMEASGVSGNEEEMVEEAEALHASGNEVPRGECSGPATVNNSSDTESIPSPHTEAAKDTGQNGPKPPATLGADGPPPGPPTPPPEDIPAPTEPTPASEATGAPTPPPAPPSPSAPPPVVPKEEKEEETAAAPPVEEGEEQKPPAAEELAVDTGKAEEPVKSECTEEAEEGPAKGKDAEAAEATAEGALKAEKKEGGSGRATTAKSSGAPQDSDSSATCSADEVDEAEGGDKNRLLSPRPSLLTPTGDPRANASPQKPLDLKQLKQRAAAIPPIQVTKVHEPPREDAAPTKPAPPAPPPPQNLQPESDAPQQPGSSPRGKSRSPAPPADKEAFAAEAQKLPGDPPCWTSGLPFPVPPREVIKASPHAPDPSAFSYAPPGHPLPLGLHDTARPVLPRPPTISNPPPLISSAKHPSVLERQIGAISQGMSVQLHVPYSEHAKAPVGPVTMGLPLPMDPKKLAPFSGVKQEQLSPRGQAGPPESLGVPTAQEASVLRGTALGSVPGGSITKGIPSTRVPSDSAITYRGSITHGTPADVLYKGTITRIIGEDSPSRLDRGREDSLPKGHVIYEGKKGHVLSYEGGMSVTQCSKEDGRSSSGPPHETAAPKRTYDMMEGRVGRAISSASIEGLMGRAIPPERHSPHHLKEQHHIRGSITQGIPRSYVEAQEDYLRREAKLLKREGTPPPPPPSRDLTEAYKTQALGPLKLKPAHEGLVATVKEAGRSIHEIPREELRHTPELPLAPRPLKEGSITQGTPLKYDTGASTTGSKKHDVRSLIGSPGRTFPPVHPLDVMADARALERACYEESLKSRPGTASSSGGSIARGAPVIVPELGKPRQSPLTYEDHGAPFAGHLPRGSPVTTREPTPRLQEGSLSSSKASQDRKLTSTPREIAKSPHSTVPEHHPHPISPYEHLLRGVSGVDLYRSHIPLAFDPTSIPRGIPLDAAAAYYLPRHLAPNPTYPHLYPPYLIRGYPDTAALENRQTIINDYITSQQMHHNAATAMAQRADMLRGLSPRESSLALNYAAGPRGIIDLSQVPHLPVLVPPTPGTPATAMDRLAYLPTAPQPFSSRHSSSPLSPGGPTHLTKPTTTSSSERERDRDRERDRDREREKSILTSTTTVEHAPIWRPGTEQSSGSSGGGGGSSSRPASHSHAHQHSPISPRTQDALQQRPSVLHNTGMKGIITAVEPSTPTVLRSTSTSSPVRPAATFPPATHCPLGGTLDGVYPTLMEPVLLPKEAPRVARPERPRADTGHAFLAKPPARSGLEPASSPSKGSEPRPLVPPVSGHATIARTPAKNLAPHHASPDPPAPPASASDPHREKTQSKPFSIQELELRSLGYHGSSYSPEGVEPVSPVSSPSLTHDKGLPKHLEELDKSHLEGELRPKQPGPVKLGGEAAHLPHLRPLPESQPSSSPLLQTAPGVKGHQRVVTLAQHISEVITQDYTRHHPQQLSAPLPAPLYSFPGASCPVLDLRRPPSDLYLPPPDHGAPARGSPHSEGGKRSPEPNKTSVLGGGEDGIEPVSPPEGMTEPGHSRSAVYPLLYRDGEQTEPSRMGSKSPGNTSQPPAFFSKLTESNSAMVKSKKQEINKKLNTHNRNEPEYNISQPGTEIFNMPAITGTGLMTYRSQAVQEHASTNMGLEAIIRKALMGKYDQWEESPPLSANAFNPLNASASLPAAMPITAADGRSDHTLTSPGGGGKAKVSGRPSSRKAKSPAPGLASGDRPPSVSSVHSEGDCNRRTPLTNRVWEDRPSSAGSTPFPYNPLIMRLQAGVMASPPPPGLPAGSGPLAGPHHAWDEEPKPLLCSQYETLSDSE", "assay": "Counterscreen for NR2E3 inverse agonists: TR-FRET-based biochemical high throughput dose response assay to identify inverse agonists of the interaction between peroxisome proliferator-activated receptor gamma (PPARg) and nuclear receptor co-repressor 2 (NCOR2).", "assay_type": "functional"}, "Genome polyprotein": {"biological_target": "Genome polyprotein (Hepatitis C virus, UniProt Q2Q167)", "sequence (Q2Q167 whole entry)": "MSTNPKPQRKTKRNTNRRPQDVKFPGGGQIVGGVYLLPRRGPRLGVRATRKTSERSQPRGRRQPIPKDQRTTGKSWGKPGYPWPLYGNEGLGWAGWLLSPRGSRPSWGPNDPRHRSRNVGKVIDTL", "assay": "HCV core protein dimerization inhibitors, dose response, biochemical, TR-FRET (AID 2159);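 further: blocks dimerization of HCV core protein measured by TR-FRET between tagged core106 pairs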", "set-up": "species or system Hepacivirus hominis"}, "H9c2": {"tested_on": "H9c2", "assay": "cells", "assay_type": "functional, cell-based", "conditions": "Rattus norvegicus, H9c2, Myocardium"}, "NADPH oxidase 1": {"biological_target": "T2, NADPH oxidase 1 (Homo sapiens, UniProt Q9Y5S8)", "T2 sequence (Q9Y5S8 whole entry)": "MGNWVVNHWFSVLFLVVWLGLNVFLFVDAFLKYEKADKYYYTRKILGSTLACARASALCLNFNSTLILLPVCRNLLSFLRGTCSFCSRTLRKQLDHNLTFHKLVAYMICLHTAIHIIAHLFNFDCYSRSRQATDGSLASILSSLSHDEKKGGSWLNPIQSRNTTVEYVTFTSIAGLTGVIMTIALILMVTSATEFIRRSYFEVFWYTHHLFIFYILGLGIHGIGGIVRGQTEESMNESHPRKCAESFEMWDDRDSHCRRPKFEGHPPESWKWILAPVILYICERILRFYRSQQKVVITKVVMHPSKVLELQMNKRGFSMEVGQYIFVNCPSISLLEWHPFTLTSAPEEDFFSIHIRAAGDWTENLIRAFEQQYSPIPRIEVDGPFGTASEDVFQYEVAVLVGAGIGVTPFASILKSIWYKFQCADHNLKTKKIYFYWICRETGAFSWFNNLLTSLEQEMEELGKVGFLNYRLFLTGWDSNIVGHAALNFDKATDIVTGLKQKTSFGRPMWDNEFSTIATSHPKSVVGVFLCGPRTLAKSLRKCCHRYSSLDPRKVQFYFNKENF", "assay": "Late-stage luminescence-based cell-based dose response assay to identify inhibitors of NADPH oxidase 1 (NOX1): Purchased analogs 2.", "assay_type": "functional"}},
  "note": "The source made the active and inactive calls.",
  "data": [
    {"smiles": "C[N+]1=C2CCCCCN2C(O)(c2ccccc2)C1", "note": "(centres undefined)", "values": [
      {"measurement": "EC50", "setting": "[1]", "value": "13.8 µM (not active)"},
      {"measurement": "IC50", "setting": "[2]", "value": "7.03 µM (active)"},
      {"measurement": "IC50", "setting": "[3]", "value": "3.25 µM (active)"},
      {"measurement": "IC50", "setting": "[4]", "value": "75.1 µM (active)"}
    ]},
    {"smiles": "CCc1ccccc1NC(=O)c1ccc([N+](=O)[O-])s1", "values": [
      {"measurement": "IC50", "setting": "[5]", "value": "> 100 µM (active)"},
      {"measurement": "EC50", "setting": "[6]", "value": "> 30 µM (not active)"},
      {"measurement": "EC50", "setting": "[7]", "value": "0.471 µM (active)"}
    ]},
    {"smiles": "Clc1ccc(CSc2nc[nH]n2)cc1", "values": [
      {"measurement": "IC50", "setting": "[8]", "value": "> 100 µM (active)"}
    ]},
    {"smiles": "Cc1cccc2c1NC(=O)/C2=C1\\Nc2ccc(Br)cc2C1=O", "values": [
      {"measurement": "IC50", "setting": "Danio rerio", "value": "0.52 µM (not active)"}
    ]},
    {"smiles": "COc1ccc(-c2ccc(SCC(=O)Nc3nccs3)nn2)cc1OC", "values": [
      {"measurement": "IC50", "setting": "[9]", "value": "7.04 µM (active)"},
      {"measurement": "IC50", "setting": "[10]", "value": "6.57 µM (active)"}
    ]},
    {"smiles": "COc1ccc2oc(C(=O)Nc3ccc(N4CCOCC4)cc3)c(C)c2c1", "values": [
      {"measurement": "IC50", "setting": "Genome polyprotein", "value": "> 49.8 µM (not active)"},
      {"measurement": "IC50", "setting": "H9c2", "value": "> 79 µM (inactive)"}
    ]},
    {"smiles": "COc1cc(/C=N/Nc2c(F)c(F)nc(F)c2F)cc(OC)c1O", "values": [
      {"measurement": "IC50", "setting": "NADPH oxidase 1", "value": "2.94 µM (active)"}
    ]}
  ]
}
